Test results from patent publication US12552773B2, “Compound for specifically enhancing spatial coupling degree of TRPV4-KCa2.3 complex and use thereof” (Jiangnan University, priority 2020, dated 2026).
Each block holds one molecule with its values, some of them ahead of it.

Legend:
TRPV4-KCa2.3 complex = target: T1, TRPV4-KCa2.3 complex (Mus musculus, UniProt P58391+Q9EPK8); test: In vitro coupling activity test (FRET, immunostained endothelial cells); format: cell-based, mice; conditions: for Fret efficiency value (average value): endothelial cells, 10 μmol/L, 24 hours, higher value = higher degree of coupling; for coupling between the TRPV4 and the KCa2.3: high-salt state, cells incubated 24 hours, compared with JNC-440
T1 construct: endogenous in cells
T1 sequence (Q9EPK8 whole entry): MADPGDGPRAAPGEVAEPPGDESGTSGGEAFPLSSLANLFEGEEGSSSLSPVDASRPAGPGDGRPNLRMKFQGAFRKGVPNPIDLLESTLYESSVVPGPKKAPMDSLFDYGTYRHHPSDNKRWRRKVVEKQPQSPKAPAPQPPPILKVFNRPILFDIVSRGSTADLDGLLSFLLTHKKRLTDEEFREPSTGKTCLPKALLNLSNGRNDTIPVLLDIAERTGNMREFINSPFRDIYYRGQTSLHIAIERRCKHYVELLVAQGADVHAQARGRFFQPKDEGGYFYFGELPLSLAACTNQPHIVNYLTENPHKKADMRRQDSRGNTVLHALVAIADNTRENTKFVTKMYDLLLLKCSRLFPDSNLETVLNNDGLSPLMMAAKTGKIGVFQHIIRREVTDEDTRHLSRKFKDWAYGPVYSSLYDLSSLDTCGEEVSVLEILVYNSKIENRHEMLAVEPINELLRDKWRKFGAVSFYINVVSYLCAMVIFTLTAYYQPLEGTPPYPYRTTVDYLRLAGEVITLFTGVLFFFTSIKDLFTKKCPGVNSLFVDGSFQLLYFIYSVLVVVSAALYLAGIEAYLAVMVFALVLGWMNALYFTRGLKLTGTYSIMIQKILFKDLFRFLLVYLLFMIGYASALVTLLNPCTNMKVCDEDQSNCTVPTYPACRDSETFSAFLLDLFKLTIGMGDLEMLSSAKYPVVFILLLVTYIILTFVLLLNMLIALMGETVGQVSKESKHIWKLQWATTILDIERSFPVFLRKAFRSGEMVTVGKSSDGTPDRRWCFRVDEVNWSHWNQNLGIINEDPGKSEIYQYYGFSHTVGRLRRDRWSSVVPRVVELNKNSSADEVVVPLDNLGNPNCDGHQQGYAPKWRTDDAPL
T1 sequence (P58391 whole entry): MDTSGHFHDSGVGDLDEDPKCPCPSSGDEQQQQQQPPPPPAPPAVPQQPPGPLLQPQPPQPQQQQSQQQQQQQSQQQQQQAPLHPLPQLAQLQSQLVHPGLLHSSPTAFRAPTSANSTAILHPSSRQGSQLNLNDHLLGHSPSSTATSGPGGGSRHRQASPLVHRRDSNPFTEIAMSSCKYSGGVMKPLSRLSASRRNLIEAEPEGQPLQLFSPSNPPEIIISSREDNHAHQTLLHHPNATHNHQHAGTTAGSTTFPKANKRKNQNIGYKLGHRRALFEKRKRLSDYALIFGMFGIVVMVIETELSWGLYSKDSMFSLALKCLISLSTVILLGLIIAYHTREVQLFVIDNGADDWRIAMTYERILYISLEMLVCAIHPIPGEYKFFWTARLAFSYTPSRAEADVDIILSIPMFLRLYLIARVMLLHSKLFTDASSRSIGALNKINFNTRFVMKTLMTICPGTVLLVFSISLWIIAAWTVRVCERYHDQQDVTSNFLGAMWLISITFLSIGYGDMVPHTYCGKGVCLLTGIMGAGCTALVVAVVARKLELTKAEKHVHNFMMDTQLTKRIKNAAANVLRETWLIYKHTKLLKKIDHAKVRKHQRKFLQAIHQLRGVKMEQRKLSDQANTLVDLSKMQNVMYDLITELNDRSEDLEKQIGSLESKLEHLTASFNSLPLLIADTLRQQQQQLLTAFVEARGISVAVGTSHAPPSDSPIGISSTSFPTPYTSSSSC
Procedure: Endothelial cells were cultured for 3-5 days, separately incubated with the compounds in Examples 1, 2, 3, 4, 5 and 6 with a concentration of 10 μmol/L for 24 hours, fixed with 4% paraformaldehyde for 30 minutes, permeabilized with PBS containing 0.2% Triton X-100 for 10 minutes and blocked with PBS containing 5% BSA for 1 hour. Then, the cells were sequentially stained with TRPV4-550 as a primary antibody, KCa2.3 as a coupled secondary antibody (Life Technologies) and DAPI (Vector Laboratories, Burlingame, CA, USA). A laser confocal microscope was used for photographing, and a Fret value was calculated.
A higher value indicated a higher degree of coupling between the two proteins.
With reference to FIG. 3, the compound obtained in Example 1 was abbreviated as compound 365; the compound obtained in Example 2 was abbreviated as compound 366; the compound obtained in Example 3 was abbreviated as compound 491; the compound obtained in Example 4 was abbreviated as compound 437; the compound obtained in Example 5 was abbreviated as compound 455; and the compound obtained in Example 6 was abbreviated as compound 469. HS referred to hypertensive mice induced by a high-salt diet, and WT referred to normal wild-type mice.

[1] = tested on: hypertensive mice induced by a high-salt diet; test: Effects on blood pressure of hypertensive mice in vivo (tail-cuff); conditions: intragastric, 30 mg/kg; for Mean arterial pressure change value: maximum drop of the blood pressure
Procedure: The blood pressure of mice was determined by using an IITC non-invasive sphygmomanometer and a tail-cuff method. At first, the mice were trained every day for at least a week with half an hour each time. During each test, a systolic blood pressure value, a diastolic blood pressure value, a mean arterial pressure value and a heart rate could be obtained. After adaption, the mice were administered intragastrically with the compounds in Examples 4 and 5 with a dosage of 30 mg/kg, and then the blood pressure of the hypertensive mice was measured within a regular time. According to results, it was shown that after the compound in Example 4 was used, the blood pressure was reduced for only 1.5 h; and after the compound in Example 5 was used, the blood pressure could be reduced for 8 h.
(§1) According to a line chart in FIG. 4, the abscissa referred to time with h as the unit; and the ordinate referred to systolic blood pressure (SBP), mean arterial pressure (MAP) and diastolic blood pressure (DBP) with mmHg as the unit. […] According to a histogram, the ordinate referred to changes of the mean arterial pressure with mmHg as the unit. […] HS referred to the hypertensive mice induced by a high-salt diet (model mice used in in vivo experiments in this example). WT referred to normal wild-type mice. A control group Ctrl referred to model mice administered intragastrically with normal saline rather than the compounds involved in this application.
as §1, with “5,” for “4,”

[2] = In vitro metabolism in liver microsomes, rat; format: in vitro ADME
Procedure: (§2) An in vitro metabolic incubation system with a total volume of 207 μL and an organic solvent less than 1% included 188 μL of a 0.1 mol/L PBS buffer (pH 7.4) and 12 μL of an NADPH generation system (prepared by mixing 10 μL of a solution A and 2 μL of a solution B on an ice bath before use). 2 μL of the compounds in Examples 4 and 5 with a concentration of 20 μm/L were added into the incubation system on an ice bath for pre-incubation in a water bath at 37° C. for 5 minutes. Then, 5 μL of liver microsomal enzymes of different species were added on an ice bath for uniform mixing and incubation in a water bath at 37° C. 400 μl of glacial acetonitrile (containing 50 ng/ml of an internal standard (caffeine)) was separately added at 0 minute, 10 minutes, 30 minutes, 60 minutes, 90 minutes, 120 minutes, 180 minutes, 360 minutes and 480 minutes to stop a reaction, and a parallel experiment was carried out 3 times. A rotation speed was 13,000 rpm/15 min. A supernatant was taken and detected by using an ultra-high performance liquid chromatography-quadrupole time-of-flight mass spectrometer.

[3] = In vitro metabolism in liver microsomes, mouse; format: in vitro ADME; conditions: for In vivo inherent clearance rate: from mouse liver microsomes; for half-life at 0.193 µM: mouse, liver microsomes, pH 7.4, mouse liver microsomes; for microsomal CLint at 0.193 µM: pH 7.4, read-out: Inherent clearance rate in liver microsomes
Procedure: as §2

[4] = In vitro metabolism in liver microsomes, human; format: in vitro ADME; conditions: for In vivo inherent clearance rate: from human liver microsomes; for half-life at 0.193 µM: human, liver microsomes, pH 7.4, human liver microsomes, read-out: Half-life obtained after incubation in liver microsomes of human (converted); for microsomal CLint at 0.193 µM: pH 7.4, read-out: Inherent clearance rate in liver microsomes
Procedure: as §2

[5] = In vitro metabolism in liver microsomes of different species (overall statement); format: in vitro ADME; conditions: for metabolism differences between species: liver microsomes of different species; for half-life at 0.193 µM: mouse, rat, human, dog (Example 4), human (Example 5), liver microsomes, pH 7.4, liver microsomes, overall over the species
Procedure: as §2

[6] = In vitro metabolism in liver microsomes, dog; format: in vitro ADME
Procedure: as §2

[7] = tested on: Mesenteric primary endothelial cells; test: Determination of intracellular K+ (PBFI fluorescence ratio); format: cell-based; conditions: high-salt state, 10 μmol/L, 24 hours, versus no drug
Procedure: Mesenteric primary endothelial cells were cultured for 3-5 days and separately incubated with the compounds in Examples 4, 5 and 6 with a concentration of 10 μmol/L for 24 hours. A culture medium was removed. The cells and NPSS containing PBFI were incubated in an incubator at a ratio of 1:200 at 37° C. in a dark environment.
An Olympus fluorescence imaging system was used for measuring fluorescence with dual excitation at 340 nm and 380 nm. Changes of [K^+] were calculated as changes of a PBFI ratio.

- In vivo inherent clearance rate ([2]; from rat liver microsomes): 15.07 ml · ^1min · kg^−1
- half-life at 0.193 µM ([2]; pH 7.4, rat liver microsomes): 2.85 h
- microsomal CLint at 0.193 µM ([2]; pH 7.4, rat liver microsomes, read-out: Inherent clearance rate in liver microsomes): 8.4 µL/min/mg
- In vivo inherent clearance rate [3]: 40.21 ml · ^1min · kg^−1
- half-life at 0.193 µM [3]: 2.34 h
- microsomal CLint at 0.193 µM ([3]; mouse liver microsomes): 10 µL/min/mg
- In vivo inherent clearance rate [4]: 9.43 ml · ^1min · kg^−1
- half-life at 0.193 µM ([4]; 37° C., NADPH): 2.44 h
- microsomal CLint at 0.193 µM ([4]; human liver microsomes): 9.5 µL/min/mg
- Fret efficiency value (average value) (TRPV4-KCa2.3 complex): 8.15
- coupling between the TRPV4 and the KCa2.3 (TRPV4-KCa2.3 complex): enhanced
- half-life at 0.193 µM [5]: ~2.5 h
- In vivo inherent clearance rate ([6]; from dog liver microsomes): 15.91 ml · ^1min · kg^−1
- half-life at 0.193 µM ([6]; pH 7.4, dog liver microsomes): 2.23 h
- microsomal CLint at 0.193 µM ([6]; pH 7.4, dog liver microsomes, read-out: Inherent clearance rate in liver microsomes): 11 µL/min/mg
Compound: CCN1CCN(Cc2ccc(NC(=O)NCCCCC(=O)Nc3ccccc3)cc2)CC1 [Example 4, 5-(3-(4-((4-ethylpiperazin-1-yl)methyl)phenyl)ureido)-N-phenylpentaneamide]
- time for which the blood pressure was reduced [1]: 1.5 h
- Mean arterial pressure change value [1]: 16 mmHg
- metabolism differences between species [5]: no metabolism differences between species
- outflow ability of the intracellular potassium ions (changes of [K+]) [7]: significantly improved

- In vivo inherent clearance rate [3]: 7.065 ml · ^1min · kg^−1
- Half-life in liver microsomes ([3]; mouse liver microsomes): 3.35 h
- half-life at 0.193 µM [3]: 4.23 h
- microsomal CLint at 0.193 µM ([3]; mouse liver microsomes): 7.1 µL/min/mg
- In vivo inherent clearance rate [4]: 22.326 ml · ^1min · kg^−1
- Half-life obtained after incubation in liver microsomes of human ([4]; human liver microsomes, 37° C., NADPH): 4.23 h
- half-life at 0.193 µM ([4]; 37° C., NADPH): 3.35 h
- microsomal CLint at 0.193 µM ([4]; human liver microsomes): 5.7 µL/min/mg
- Fret efficiency value (average value) (TRPV4-KCa2.3 complex): 7.68
- coupling between the TRPV4 and the KCa2.3 (TRPV4-KCa2.3 complex): enhanced
- half-life at 0.193 µM [5]: 4 ± 0.5 h
Compound: CCN1CCN(Cc2ccc(NC(=O)NCCCCC(=O)Nc3ccc(F)cc3)cc2)CC1 [Example 5, 5-(3-(4-((4-ethylpiperazin-1-yl)methyl)phenyl)ureido)-N-(4-fluorophenyl)pentaneamide]
- time for which the blood pressure was reduced [1]: 8 h
- Mean arterial pressure change value [1]: 38 mmHg
- metabolism differences between species [5]: no metabolism differences between species
- outflow ability of the intracellular potassium ions (changes of [K+]) [7]: significantly improved

- half-life at 0.193 µM ([4]; 37° C., NADPH): 0.813 h
- Fret efficiency value (average value) (TRPV4-KCa2.3 complex): 5.02
Compound: O=C(NCCCNC(=O)C(c1ccccc1)c1ccccc1)c1nc(=O)c2ccccc2[nH]1 [JNC-440, reference compound]
- Mean arterial pressure change value [1]: 10 mmHg

Continued, molecule first:

Compound: O=C(Cc1ccncc1)NCCCNC(=O)c1nc(=O)c2ccccc2[nH]1 [Example 1, 4-oxo-N-(3-(2-(pyridin-4-yl)acetamido)propyl)-1,4-dihydroquinazoline-2-carboxamide]
- Fret efficiency value (average value) (TRPV4-KCa2.3 complex): 6.06
- coupling between the TRPV4 and the KCa2.3 (TRPV4-KCa2.3 complex): enhanced

Compound: O=C(NCCCNC(=O)c1nc(=O)c2ccccc2[nH]1)Nc1ccncc1 [Example 2, 4-oxo-N-(3-(3-(pyridin-4-yl)ureido)propyl)-1,4-dihydroquinazoline-2-carboxamide]
- Fret efficiency value (average value) (TRPV4-KCa2.3 complex): 5.98
- coupling between the TRPV4 and the KCa2.3 (TRPV4-KCa2.3 complex): enhanced

Compound: CCN1CCN(Cc2ccc(NC(=O)NCCCNC(=O)c3nc(=O)c4ccccc4[nH]3)cc2)CC1 [Example 3]
- Fret efficiency value (average value) (TRPV4-KCa2.3 complex): 5.62
- coupling between the TRPV4 and the KCa2.3 (TRPV4-KCa2.3 complex): enhanced

Compound: CCN1CCN(Cc2ccc(NC(=O)NCCCCCNC(=O)c3ccc(F)cc3)cc2)CC1 [Example 6]
- Fret efficiency value (average value) (TRPV4-KCa2.3 complex): 7.98
- coupling between the TRPV4 and the KCa2.3 (TRPV4-KCa2.3 complex): enhanced
- outflow ability of the intracellular potassium ions (changes of [K+]) [7]: significantly improved
